The text below walks through data of PMC12005767 (Advanced Science, 2025).

One data set has as its target SIRT2 (Homo sapiens, UniProt Q8IXJ6). As to the kind of experiment: SIRT2 inhibition fluorescence assay (AcIQF substrate). Type of data set: biochemical. As to the method: For the inhibitory activity against SIRT2, substrate is the AcIQF.^[ [46] ^] Dilution series compound was incubated with the SIRT2 enzyme ([…]) for 30 min at 25 °C. Then AcIQF (5 × 10^−3 M) and NAD^+ ([…]) were added to start the reaction at 25 °C. 2 h later, […] stop solution (containing ≈2 U mL^−1 trypsin and 4 × 10^−3 M nicotinamide) was added to stop the reactions. Then the mixture was incubated for 30 min, and the fluorescence intensity was assessed.

The test system of data set [1] is AML12 cells. Put plainly: FFA-induced lipid accumulation in AML12 cells (Oil Red O). To be noted: 24 h. Type of data set: cell-based.
Data set [2] in a line: Hydrophilicity / dissolution in 5% DMSO aqueous solution (HPLC). Type of data set: physicochemical. The settings on record: Figure S2. On the procedure: Figure S2. (A) Liquid chromatograms of compounds A8 and B6 in methanol and 5% DMSO aqueous solution, respectively. The chromatograms were determined with an Agilent 1260 HPLC, using an Agilent 5 TC-C18 column (5 μm, 250mm× 4.6 mm). The eluent system was made up of solvent A (water) and solvent B (methanol). Elution conditions: phase B was 85% The peaks were detected at 254 nm at a flow rate was 1.0 mL/min. (B) The peak areas of serially diluted compound B6 were determined under the above-mentioned liquid chromatographic conditions, and a linear regression equation was fitted. (C) The dissolution status/solubility condition of compounds A8 and B6 in a 5% DMSO aqueous solution.

Data set [3] relates to acetylation of histone H3, histone H4, and α-tubulin. As to the kind of experiment: Acetylation of histone H3, histone H4 and α-tubulin in HEK293T cells (immunoblot). Type of data set: cell-based. The settings on record: HEK293T cells, 0.25, 0.5 and 1 × 10^−6 M, 24 h. On the procedure: (§1) Western blot was carried out as described.^[ [49] ^] In brief, samples were lysed with a lysis buffer. The same quantity of total proteins (40–60 µg) from each sample was separated on SDS‐PAGE followed by transfer onto a nitrocellulose filter membrane and incubation with the indicated antibodies. After incubation with secondary antibodies, the protein bands were visualized using a chemiluminescence imaging system. All samples in the same group were processed simultaneously.

Data set [4] is described as follows: Pharmacokinetic study in ICR mice (i.v. and p.o.). Type of data set: in vivo. To be noted: male, mouse, plasma; for MRT inf: read-out: MRT0-inf. As to the method:
Pharmacokinetics study was performed by Medicilon Preclinical Research (Shanghai) LLC. Male ICR mice, which were purchased from Sino‐British SIPPR Lab Animal Ltd., Shanghai (25–30 g, 14 weeks of age), were fasted overnight before administration and resumed food 6 h after initial plasma sampling. Compound was dissolved in solution containing 10% DMAC, 40% PEG‐400, and 50% water and was delivered to three animals by intravenous bolus injection (i.v.) and oral gavage (p.o.) at a dose of 5 and 20 mg kg^−1 with a volume of 5 and 10 mL kg^−1, respectively. Blood samples were collected at the following time points: 5, 15, 30 min and 1, 2, 4, 6, 8, and 24 h post dose administration. The blood samples were taken via submandibular vein, 30 µL/time point.
Sample were placed in tubes containing K2‐EDTA and stored on ice until centrifuged. The blood samples were centrifuged at 6800 g for 6 min at 2–8 °C within 1 h after collected and stored frozen at ≈−80 °C. A 20 µL plasma sample was treated with 400 µL of methanol containing 10 ng mL^−1 IS to precipitate the protein. The mix was then vortexed for a minute and centrifuged at 18 000 g for 7 min. The resulting supernatant (400 µL) was transferred to a 96‐well plate, and an injection of 1 µL of this supernatant was used for the LC‐MS/MS analysis. The animal protocols used in this study were approved by the Preclinical R&D Unit of Medicilon Institutional Animal Care and Use Committee (IACUC) (26030‐21002) and operated in accordance with the Guide for the Care and Use of Laboratory Animals published by the National Institutes of Health (NIH).

In the next data set the target is T1, HDAC4 (Homo sapiens, UniProt P56524).
T1 construct: purchased BPS Bioscience
As to the kind of experiment: In vitro HDACs inhibition fluorescence assay, HDAC4. To be noted: mean ± SEM. Type of data set: biochemical. On the procedure: (§2) In Vitro HDACs Inhibition Fluorescence Assay: For the inhibitory activity against HDAC1‐10, enzymes were also procured from BPS Bioscience. The in vitro […] inhibition assays were conducted following the established method described previously.^[ [45] ^] The working concentrations of HDAC1‐10 were 4 × 10^−9 M. The fluorogenic substrate of HDAC1, 2, 3, and 6 was Boc‐Lys (acetyl)‐AMC, and the substrate of HDAC4, 5, 7, 8, 9, and 10 was Boc‐Lys (trifluoroacetyl) AMC. The developer solution consists of 30 mg mL^−1 trypsin and 5 × 10^−6 M TSA. A standing period of 30 min was sufficient before assessing the fluorescence intensity.

Data set [5] concerns SREBP1c, FASN, SCD1, CPT1A, PGC1α, PPARα expression in AML12 cells. As to the kind of experiment: Protein and mRNA expression of DNL and fatty acid oxidation genes in FFA-treated AML12 cells. Type of data set: cell-based. On the procedure: as §1
Cells and liver tissues were extracted for total RNA. A reverse transcription kit was used to synthesize cDNA. qRT‐PCR was performed with the primers listed in Table S1 (Supporting Information) using the SYBR green PCR master mix. The coding sequence of the target gene was found in NCBI, and Primer3 (v.0.4.0) was used to design amplification primers. The results were normalized by β‐actin in the corresponding sample.

For another data set, the target named is T2, HDAC8 (Homo sapiens, UniProt Q9BY41).
T2 construct: purchased BPS Bioscience
As to the kind of experiment: In vitro HDACs inhibition fluorescence assay, HDAC8. Type of data set: biochemical. On the procedure: as §2

Data set [6] relates to AML12 cells. Put plainly: Mitochondrial activity (Mito-Tracker, Seahorse OCR) in FFA-treated AML12 cells. Type of data set: cell-based.
In another data set the test system is HepG2 cells. As to the kind of experiment: FFA-induced lipid accumulation in HepG2 cells (Oil Red O). Type of data set: cell-based, human. To be noted: 24 h. As to the method:
For the lipid accumulation experiment, HepG2 cells were incubated for 24 h in DMEM containing 0.5 × 10^−3 M of a mixture of free fatty acids (FFA; oleic acid: palmitic acid = 2:1) and 1% FFA‐free bovine serum albumin to induce intracellular lipid accumulation, together with B6 treatment.
Cells were fixed with 4% paraformaldehyde, followed by sequential staining with Oil Red O and hematoxylin.

The mark [7] stands for this setting: ICR, po, 20 mg/kg, p.o. at 20 mg/kg.

Read-outs that look alike come from different tables or passages of the source.

T2 sequence (Q9BY41 whole entry): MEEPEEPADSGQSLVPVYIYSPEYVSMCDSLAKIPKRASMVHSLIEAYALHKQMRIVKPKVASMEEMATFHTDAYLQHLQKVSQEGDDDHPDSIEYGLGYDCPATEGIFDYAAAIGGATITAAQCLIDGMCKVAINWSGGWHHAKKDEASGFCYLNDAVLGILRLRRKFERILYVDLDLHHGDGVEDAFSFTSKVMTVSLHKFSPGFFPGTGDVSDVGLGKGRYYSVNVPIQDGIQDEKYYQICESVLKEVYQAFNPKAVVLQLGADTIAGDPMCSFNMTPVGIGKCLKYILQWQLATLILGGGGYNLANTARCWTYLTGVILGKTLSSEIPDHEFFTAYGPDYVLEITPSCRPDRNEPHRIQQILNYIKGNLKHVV
SIRT2, sequence (Q8IXJ6 whole entry, species assumed): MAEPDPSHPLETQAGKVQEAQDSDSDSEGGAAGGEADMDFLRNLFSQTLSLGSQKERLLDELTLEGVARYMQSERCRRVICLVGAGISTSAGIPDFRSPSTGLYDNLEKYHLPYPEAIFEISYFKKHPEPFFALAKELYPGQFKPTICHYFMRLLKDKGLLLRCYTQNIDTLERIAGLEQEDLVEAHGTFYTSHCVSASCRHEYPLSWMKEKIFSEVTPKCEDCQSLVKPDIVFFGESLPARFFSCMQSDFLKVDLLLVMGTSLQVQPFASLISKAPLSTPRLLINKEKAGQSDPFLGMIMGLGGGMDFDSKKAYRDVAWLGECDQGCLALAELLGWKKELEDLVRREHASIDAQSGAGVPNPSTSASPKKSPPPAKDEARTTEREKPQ
T1 sequence (P56524 whole entry): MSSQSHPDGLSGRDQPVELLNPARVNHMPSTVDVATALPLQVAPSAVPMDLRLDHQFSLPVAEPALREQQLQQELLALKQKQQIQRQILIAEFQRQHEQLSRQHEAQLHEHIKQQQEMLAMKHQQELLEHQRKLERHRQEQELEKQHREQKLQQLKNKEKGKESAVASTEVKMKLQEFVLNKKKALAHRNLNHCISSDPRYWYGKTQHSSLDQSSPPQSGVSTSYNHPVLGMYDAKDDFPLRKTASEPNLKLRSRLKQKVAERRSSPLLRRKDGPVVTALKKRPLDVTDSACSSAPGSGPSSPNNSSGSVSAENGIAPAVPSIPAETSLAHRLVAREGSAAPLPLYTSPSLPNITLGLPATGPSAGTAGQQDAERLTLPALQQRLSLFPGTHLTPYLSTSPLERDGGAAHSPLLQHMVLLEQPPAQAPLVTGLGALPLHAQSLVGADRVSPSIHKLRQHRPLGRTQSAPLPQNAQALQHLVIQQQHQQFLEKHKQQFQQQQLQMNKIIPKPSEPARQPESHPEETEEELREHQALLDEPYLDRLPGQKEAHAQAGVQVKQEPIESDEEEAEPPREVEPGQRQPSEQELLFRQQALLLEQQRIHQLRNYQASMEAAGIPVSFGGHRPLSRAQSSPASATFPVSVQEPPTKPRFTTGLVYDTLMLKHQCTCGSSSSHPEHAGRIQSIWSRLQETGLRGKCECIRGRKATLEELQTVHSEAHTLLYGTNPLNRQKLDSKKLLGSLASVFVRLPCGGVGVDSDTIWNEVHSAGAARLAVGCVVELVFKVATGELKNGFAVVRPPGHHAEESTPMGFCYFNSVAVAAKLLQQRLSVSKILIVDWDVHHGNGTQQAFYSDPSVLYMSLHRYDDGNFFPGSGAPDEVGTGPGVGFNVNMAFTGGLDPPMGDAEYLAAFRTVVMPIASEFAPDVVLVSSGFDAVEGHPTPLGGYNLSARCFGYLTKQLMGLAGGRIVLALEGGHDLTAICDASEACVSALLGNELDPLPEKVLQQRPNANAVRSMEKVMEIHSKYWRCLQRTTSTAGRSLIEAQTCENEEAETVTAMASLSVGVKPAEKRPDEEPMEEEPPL

As to `CCCCCOCCCCCNNC(=O)c1ccc(CNC(=O)c2ccccc2)cc1` [B6], the “inhibitory activity against other HDAC subtypes, including SIRT2” value against SIRT2 (at a concentration of 10 × 10^−6 M) is “no significant inhibitory activity”. In addition, the IC50 was > 10 µM against SIRT2 (mean ± SEM), > 10 µM at HDAC4, 5 µM against HDAC8 and 4.76 ± 0.159 µM against HDAC8 (mean ± SEM). For the same molecule, the “concentration of maximal effect on lipid accumulation” value in the data set on AML12 cells [1] came to 500 nM. Also, the FFA-induced lipid accumulation result with AML12 cells [1] (various concentrations) is recorded as “significantly mitigated”; in the data set with HepG2 cells, “Comparable reduction in lipid accumulation”. Besides, the “hydrophilicity relative to parent compound A8” value in data set [2] is given as “improved the hydrophilicity”. For the same molecule, the “acetylation levels of histones H3 and H4 or tubulin” value in data set [3] is “no effect”. The AUC(0-inf) in [4] (setting [7]) is 3480 ng·h/mL. The highest level in data set [4] (setting [7]) (Cmax) was 2610 ng/mL. Further, the half-life was 3.8 h in data set [4] (iv, i.v. at 5 mg/kg) and 2.3 h in [4] (po, p.o. at 20 mg/kg). Moreover, the clearance in [4] (iv, i.v. at 5 mg/kg) was found to be 39.5 ± 13.5 mL/min/kg. For the same molecule, the MRT inf turned out to be 0.23 ± 0.02 h in data set [4] (iv, i.v. at 5 mg/kg) and 2.6 ± 0.8 h in data set [4] (po, p.o. at 20 mg/kg). In [4] (oral, p.o. at 20 mg/kg vs i.v. at 5 mg/kg, read-out: oral bioavailability (F%)), the bioavailability amounted to 34.5%. In addition, the “FFA-suppressed protein and mRNA expression of CPT1A, PGC1α and PPARα” value in data set [5] is “partially restored”. Further, the “FFA-upregulated protein and mRNA expression of SREBP1c, FASN and SCD1” value in data set [5] (0.5 × 10^−6 M, 24 h) was “reversed”. The “FFA-inhibited mitochondrial activity (Mito-Tracker staining)” value in the data set with AML12 cells [6] is reported as “ameliorated”. In the data set with AML12 cells [6] (FFA), the “mitochondrial stress test (OCR, basal and maximal respiration)” value was “partially restored mitochondrial activity”.
